# Results: patent publication US12594349B2, “Compositions and methods for the targeting of PCSK9” (Scribe Therapeutics Inc., priority 2022, dated 2026)
# Tested on: human PCSK9 locus
# Assay: Secreted PCSK9 by ELISA in Huh7 cells transfected with mRNA and gRNA
# Assay type: cell-based
# Settings: Huh7 cells; for Percent reduction in PCSK9 secretion / Average percent reduction in PCSK9 secretion: LTRP5-ADD-ZIM3 mRNA; for Percent reduction in PCSK9 secretion: day 6, relative to non-targeting gRNA control; for Average percent reduction in PCSK9 secretion: day 6, averaged from the two doses; for Secreted PCSK9: 6 days post-transfection, normalized to total cell count
# Experimental: To assess PCSK9 secretion, seeded Huh7 cells were transfected with mRNA encoding a catalytically-active CasX 676, dXR1, or LTRP5-ADD-ZIM3 and a gRNA with scaffold 316 and spacer targeting either the B2M or PCSK9 locus. Media supernatant was harvested at 6, 18, 36, and 87 days post-transfection to assess level of PCSK9 secretion by ELISA. Levels of PCSK9 secretion were normalized to total cell count. As an additional control, PCSK9 secretion was also measured in the media supernatant harvested from wells containing untreated, naïve cells.
# The following three human hepatocyte cancer cell lines were used in this experiment: HepG2 cells, Hep3B cells, and Huh7 cells. ˜15,000 cells of each cell line were seeded per well; the next day, seeded cells were transfected with mRNA encoding a catalytically-active CasX 676, dXR1, or LTRP5-ADD-ZIM3 and a gRNA with scaffold 316 and spacer targeting either the B2M or PCSK9 locus (see Table 23 for specific spacers and sequences). Media supernatant was harvested at 4 days post-transfection to assess level of PCSK9 secretion by ELISA, and levels of PCSK9 secretion were normalized to total cell count and illustrated in FIGS. 11A-11C. Culturing of treated Huh7 cells continued, and media supernatant was harvested at 14 and 27 days post-transfection for measuring PCSK9 secretion by ELISA. As an additional experimental control, PCSK9 secretion was also measured in the media supernatant harvested from wells containing untreated, naïve cells.
# To assess PCSK9 secretion, seeded Huh7 cells were co-transfected with mRNA encoding for LTRP5-ADD-ZIM3 and a gRNA with scaffold 316 and spacer targeting the PCSK9 locus using Lipofectamine™ 3000. Two doses of total RNA input at a 2:1 mass ratio of mRNA to gRNA were used for screening: 50 ng mRNA:25 ng gRNA and 25 ng mRNA:12.5 ng gRNA. Media supernatant was harvested at 6 days post-transfection to assess level of PCSK9 secretion by ELISA (Table 74). Levels of PCSK9 secretion were normalized to total cell count. As an additional control, PCSK9 secretion was also measured in the media supernatant harvested from cells transfected with mRNA encoding for mScarlet.
# [1] = LTRP5-ADD-ZIM3 mRNA + gRNA scaffold 316, 25 ng mRNA:12.5 ng gRNA
# [2] = LTRP5-ADD-ZIM3 mRNA + gRNA scaffold 316, 50 ng mRNA:25 ng gRNA
Substance,Percent reduction in PCSK9 secretion (25 ng mRNA:12.5 ng gRNA) [%],Percent reduction in PCSK9 secretion (50 ng mRNA:25 ng gRNA) [%],Average percent reduction in PCSK9 secretion [%],Secreted PCSK9 [1] [ng/mL],Secreted PCSK9 [2] [ng/mL]
Non-targeting (guide CGAGACGTAATTACGTCTCG; chemistry not given here),0,0,0,,
"TG-06-002 (guide ACCGCUGCGCCAAGGUGCGG; listed as RNA, chemistry not given here)",,0.4,,,
"TG-06-004 (guide GCCAGGCCGUCCUCCUCGGA; listed as RNA, chemistry not given here)",2.54,33.35,15.41,73.05,54.83
"TG-06-005 (guide GUGCUCGGGUGCUUCGGCCA; listed as RNA, chemistry not given here)",7.19,18.47,5.64,76.37,67.08
"TG-06-117 (guide ACUUUGUUUGCAAAGACCUC; listed as RNA, chemistry not given here)",37.62,16.16,10.73,98.05,68.98
"TG-06-118 (guide GAGUGAAAUGGCCUGCUCUG; listed as RNA, chemistry not given here)",23.11,56.86,39.99,54.78,35.5
"TG-06-119 (guide GAGCAGGCCAUUUCACUCGG; listed as RNA, chemistry not given here)",18.66,14.47,2.1,84.54,70.37
"TG-06-120 (guide CUCGGAAUCUGCUGUGCAUC; listed as RNA, chemistry not given here)",32.67,73.95,53.31,47.97,21.43
"TG-06-121 (guide GGAAGGGCUGUCGAUACUGG; listed as RNA, chemistry not given here)",47.89,65.57,56.73,37.13,28.33
"TG-06-122 (guide CCUUUGUUUCUUCCCAGUAU; listed as RNA, chemistry not given here)",20.79,3.54,8.63,86.06,79.36
"TG-06-123 (guide UCCCAGUAUCGACAGCCCUU; listed as RNA, chemistry not given here)",27.97,62.95,45.46,51.32,30.49
"TG-06-124 (guide CAGUAUCGACAGCCCUUCCA; listed as RNA, chemistry not given here)",57.06,79.9,68.48,30.59,16.54
"TG-06-125 (guide AGAAAGAGCAAGCCUCAUGU; listed as RNA, chemistry not given here)",35.28,69.7,52.49,46.11,24.93
"TG-06-126 (guide CCUUUUCAUCCUCCUGCCUG; listed as RNA, chemistry not given here)",37.09,71.46,54.27,44.82,23.48
"TG-06-127 (guide UCCUCCUGCCUGGUACACAA; listed as RNA, chemistry not given here)",31.08,72.56,51.82,49.1,22.57
"TG-06-128 (guide AGAAAUCAACUGGACAAGCA; listed as RNA, chemistry not given here)",12.57,48.7,30.63,62.29,42.21
"TG-06-129 (guide UUUUACACACCAUGUUCAAG; listed as RNA, chemistry not given here)",27.47,27.16,0.16,90.82,59.93
"TG-06-131 (guide UGAACAUGGUGUGUAAAAGG; listed as RNA, chemistry not given here)",18.74,65.48,42.11,57.89,28.4
"TG-06-132 (guide AGAAGAUUCAAUUUGCAAAG; listed as RNA, chemistry not given here)",5.29,31.11,12.91,75.01,56.68
"TG-06-134 (guide GAAUUCUAUGGUAGGCACAA; listed as RNA, chemistry not given here)",19.37,46.77,33.07,57.45,43.79
"TG-06-135 (guide GGAAAGCUGAGCUUGUGCCU; listed as RNA, chemistry not given here)",37.42,68.82,53.12,44.59,25.66
"TG-06-139 (guide AGGAGCAGCUAGUUGGUAAG; listed as RNA, chemistry not given here)",64.28,81.73,73.01,25.45,15.03
